Experimental data published in paper PMC12676205, “New Se‐Compounds With Antileishmanial, Antitumor, and Carbonic Anhydrase Inhibitory Properties” (Archiv Der Pharmazie, 2025).
Like-named read-outs stand apart in the source and are kept apart here.

Assays:
[1] = system: NCI‐60 human cancer cell lines; set-up: method as in PMID 20442306; settings: NCI-60 panel; read-out: mean GI50 in the same panel of cell lines; cited from earlier work
THP‐1 cells = system: THP‐1 cells; set-up: method as in PMID 37570815, PMID 36364304; settings: reference drugs; cited from earlier work
[2] = system: L. infantum promastigotes; set-up: method as in PMID 37570815, PMID 36364304; settings: reference drugs; cited from earlier work
L. major promastigotes [3] = system: L. major promastigotes; set-up: method as in PMID 37570815, PMID 36364304; settings: reference drugs; cited from earlier work
Colon subpanel [4] = experiment: NCI-60 five-dose assay, colon subpanel; format: cell-based; settings: Homo sapiens, 48 h
Experimental: (§1) All the compounds were selected for further testing since they fulfilled the set NCI one‐dose screening parameters for threshold inhibition. They were tested at five different concentrations (0.01, 0.1, 1, 10, and 100 μM) for 48 h against the same cell line panel and the dose–response curves along with three response parameters (50% growth inhibitory concentration [GI50], the 50% lethal concentration [LC50], and the total growth inhibition [TGI]) were calculated for every cancer cell line. The full reported data and corresponding graphs are compiled in Supporting Information S1. Average values of GI50, TGI, and LC50 values of all the reported selenoesters in all the subpanels are represented in Figure 4.
(§2) All the reported selenoesters (1–6) were submitted to the DTP of NCI. First, they were screened at a single dose (10^−5 M) against a panel of 60 cancer cell lines derived from different tumor types following the methodology available (https://dtp.cancer.gov/discovery_development/nci-60/methodology.htm). As all the compounds satisfied the threshold inhibition criteria established, they were further assessed at five concentrations (0.01, 0.1, 1, 10, and 100 µM) against the same cell panel to obtain their corresponding dose–response curves and three antitumor parameters (GI50, TGI, and LC50) by regression. GraphPad Prism 7.0 Software was used to represent the corresponding graphs.

[5] = system: NSCL (non‐small‐cell lung cancer) subpanel; experiment: NCI-60 one-dose screen, NSCL subpanel; format: cell-based, human; settings: 10 µM, 48 h
Experimental: (§3) To explore the potential antiproliferative properties of the newly synthesized derivatives, they were submitted to the National Cancer Institute's (NCI) Developmental Therapeutics Program (DTP) for screening at 10 μM in a panel of approximately 60 human cancer cell lines from different cancer types. The results are reported as the growth percentage (GP), which is the growth of the treated cells with each compound for 48 h compared to the untreated controls (Figure 2). […] The initial screening results are summarized in Figure 2, and the mean GP values of each subpanel are depicted in Figure 3. The full reports are compiled in the Supplementary Section.
as §2

Leukemia subpanel [6] = experiment: NCI-60 one-dose screen, leukemia subpanel; format: cell-based, human; settings: 10 µM, 48 h
Experimental: as §3, §2

OVCAR‐5 = experiment: NCI-60 one-dose screen, OVCAR-5; format: cell-based, human; settings: 10 µM, 48 h
Experimental: as §3, §2

Breast subpanel [7] = experiment: NCI-60 one-dose screen, breast subpanel; format: cell-based, human; settings: 10 µM, 48 h
Experimental: as §3, §2

Renal subpanel [8] = experiment: NCI-60 five-dose assay, renal subpanel; format: cell-based; settings: Homo sapiens, 48 h, read-out: Mean GI50 Renal
Experimental: as §1, §2

[9] = system: OVCAR‐5 ovarian cancer cells; experiment: NCI-60 five-dose assay, OVCAR-5; format: cell-based, human; settings: 48 h
Experimental: as §1, §2

L. major promastigotes [10] = experiment: Leishmanicidal activity against promastigotes (MTT), L. major; format: cell-based, Leishmania major; settings: Leishmania major, 48 h, mean ± SD, read-out: L. major IC50
Experimental: (§4) The synthesized compounds were tested for their antileishmanial activity against promastigotes of L. major and L. infantum at four concentrations (1, 10, 50, and 100 µM) for 48 h using the 3‐(4,5‐dimethylthiazol‐2‐yl)‐2,5‐diphenyltetrazolium bromide (MTT) assay. In this evaluation, the activity was expressed in IC50 (concentration inhibiting the parasite growth by 50%). […] The CC50 was defined as the concentration of selenoesters that led to a reduction in the viability of the macrophages, such that only 50% of the cells survived when compared to the control group. This cell line, derived from the blood of a human with acute monocytic leukemia, was chosen as it has been widely reported that it resembles tissue macrophages to various extents as well as supports the infection by numerous Leishmania promastigotes. The selectivity indexes (SIs) were calculated as the ratio between toxicity on macrophages (THP‐1 cells)/antileishmanial activity. The data for standard control drugs (miltefosine and paromomycin) are included for comparison purposes.
(§5) The promastigotes of L. major (clone VI, MHOM/IL/80/Friendlin) and L. infantum (BCN‐150) were grown at 26°C under continuous shaking in M199 1× medium (Sigma, USA). This media was supplemented with 10% of heat‐inactivated fetal bovine serum (FBS) (Gibco, USA), 0.0005% (w/v) hemin, 0.1 mM adenine, 25 mM HEPES (pH 7.2), 0.0001% (w/v) biotin, and 100 UI/mL penicillin and […] streptomycin (Gibco, USA).
(§6) The antileishmanial activity of the reported selenoesters was determined using the MTT assay as previously described during the logarithmic growth phase of the tested promastigotes of L. major and L. infantum. Briefly, the Leishmania parasites were seeded into 96‐well flat‐bottom plates (3 × 10^5 parasites/100 µL) and treated with four different concentrations ranging between 1 and 100 µM of each selenoester at 26°C for 48 h. Afterwards, 20 µL of MTT (5 mg/mL in PBS) was added to each well and incubated for 4 h under the same conditions. Then, 80 µL/well of DMSO was added to dissolve the resultant formazan crystals. The absorbances were determined on a Multiskan EX photometric plate reader for microplates at 540 nm. Three independent experiments performed in triplicate were carried out for each compound, and OriginPro 8.5.1 Software was used to calculate the IC50 values by fitting the data to a dose–inhibition sigmoid curve.

Ovarian subpanel [11] = experiment: NCI-60 one-dose screen, ovarian subpanel; format: cell-based, human; settings: 10 µM, 48 h
Experimental: as §3, §2

CNS subpanel [12] = experiment: NCI-60 one-dose screen, CNS subpanel; format: cell-based, human; settings: 10 µM, 48 h
Experimental: as §3, §2

[13] = system: NSCL (non‐small‐cell lung cancer) subpanel; experiment: NCI-60 five-dose assay, NSCL subpanel; format: cell-based; settings: Homo sapiens, 48 h, read-out: Mean GI50 NSCL
Experimental: as §1, §2

hCA IX = molecular target: T1, hCA IX (Homo sapiens, UniProt Q16790); experiment: biochemical; settings: stopped flow technique, mean from three assays
T1 construct: made in house
Experimental: (§7) An Applied Photophysics stopped‐flow instrument was used to assay the CA‐catalyzed CO2 hydration activity [52]. […] The uncatalyzed rates were determined in the same manner and subtracted from the total observed rates. Stock solutions of the inhibitor (0.1 mM) were prepared in distilled–deionized water, and dilutions up to 0.01 nM were done thereafter with the assay buffer. Inhibitor and enzyme solutions were preincubated together for 15 min at room temperature before the assay, to allow for the formation of the E–I complex. The inhibition constants were obtained by Nonlinear least‐squares methods using PRISM 3 and the Cheng‐Prusoff equation as reported earlier and represent the mean from at least three different determinations. All CA isoforms were recombinant proteins obtained in‐house, as reported earlier [54, 55, 56].

[14] = system: L. infantum promastigotes; experiment: Leishmanicidal activity against promastigotes (MTT), L. infantum; format: cell-based, Leishmania infantum; settings: Leishmania infantum, 48 h, mean ± SD, read-out: L. infantum IC50
Experimental: as §4, §5, §6

Ovarian subpanel [15] = experiment: NCI-60 five-dose assay, ovarian subpanel; format: cell-based; settings: Homo sapiens, 48 h, read-out: Mean GI50 Ovarian
Experimental: as §1, §2

hCA XII = molecular target: T2, hCA XII (Homo sapiens, UniProt O43570); experiment: hCA XII inhibition, stopped-flow CO2 hydration assay; format: biochemical; settings: stopped flow technique, mean from three assays
T2 construct: made in house
T2 sequence (O43570 25-354): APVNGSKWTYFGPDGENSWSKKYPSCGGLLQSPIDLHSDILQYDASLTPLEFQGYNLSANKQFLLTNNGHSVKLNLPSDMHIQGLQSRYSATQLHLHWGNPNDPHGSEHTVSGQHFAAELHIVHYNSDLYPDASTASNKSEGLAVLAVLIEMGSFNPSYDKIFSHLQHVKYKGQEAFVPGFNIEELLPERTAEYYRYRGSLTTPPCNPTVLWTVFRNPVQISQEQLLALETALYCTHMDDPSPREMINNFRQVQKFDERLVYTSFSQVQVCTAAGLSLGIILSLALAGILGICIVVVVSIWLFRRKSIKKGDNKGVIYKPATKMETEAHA
Experimental: as §7

Leukemia subpanel [16] = experiment: NCI-60 five-dose assay, leukemia subpanel; format: cell-based; settings: Homo sapiens, 48 h
Experimental: as §1, §2

Melanoma subpanel [17] = experiment: NCI-60 one-dose screen, melanoma subpanel; format: cell-based, human; settings: 10 µM, 48 h
Experimental: as §3, §2

hCA II = molecular target: T3, hCA II (Homo sapiens, UniProt P00918); experiment: hCA II inhibition, stopped-flow CO2 hydration assay; format: biochemical; settings: stopped flow technique, mean from three assays
T3 construct: made in house
Experimental: as §7

Prostate subpanel [18] = experiment: NCI-60 one-dose screen, prostate subpanel; format: cell-based, human; settings: 10 µM, 48 h
Experimental: as §3, §2

Melanoma subpanel [19] = experiment: NCI-60 five-dose assay, melanoma subpanel; format: cell-based; settings: Homo sapiens, 48 h, read-out: Mean GI50 Melanoma
Experimental: as §1, §2

hCA I = molecular target: T4, hCA I (Homo sapiens, UniProt P00915); experiment: hCA I inhibition, stopped-flow CO2 hydration assay; format: biochemical; settings: stopped flow technique, mean from three assays
T4 construct: made in house
T4 sequence (P00915 whole entry): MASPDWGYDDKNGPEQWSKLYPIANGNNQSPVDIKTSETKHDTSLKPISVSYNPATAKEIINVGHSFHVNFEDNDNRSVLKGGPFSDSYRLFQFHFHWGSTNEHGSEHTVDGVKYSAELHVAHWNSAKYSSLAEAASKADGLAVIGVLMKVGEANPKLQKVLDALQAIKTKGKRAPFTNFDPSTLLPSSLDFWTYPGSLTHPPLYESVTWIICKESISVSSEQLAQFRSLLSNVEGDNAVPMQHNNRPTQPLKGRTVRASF
Experimental: as §7

Prostate subpanel [20] = experiment: NCI-60 five-dose assay, prostate subpanel; format: cell-based, human; settings: Homo sapiens, 48 h
Experimental: as §1, §2

Renal subpanel [21] = experiment: NCI-60 one-dose screen, renal subpanel; format: cell-based, human; settings: 10 µM, 48 h
Experimental: as §3, §2

Breast subpanel [22] = experiment: NCI-60 five-dose assay, breast subpanel; format: cell-based; settings: Homo sapiens, 48 h, read-out: Mean GI50 Breast
Experimental: as §1, §2

Colon subpanel [23] = experiment: NCI-60 one-dose screen, colon subpanel; format: cell-based, human; settings: 10 µM, 48 h
Experimental: as §3, §2

CNS subpanel [24] = experiment: NCI-60 five-dose assay, CNS subpanel; format: cell-based; settings: Homo sapiens, 48 h, read-out: Mean GI50 CNS
Experimental: as §1, §2

For O=C1[O][Pt]2([NH][C@@H]3CCCC[C@H]3[NH]2)[O]C1=O [oxaliplatin], which GI50 [1] is on record?
The GI50 was 2.8 µM.

For O=c1[nH]cc(F)c(=O)[nH]1 [5‐fluorouracil], which GI50 [1] is on record?
Its GI50 is 18 µM.

With NC[C@@H]1O[C@H](O[C@H]2[C@@H](O)[C@H](O[C@@H]3[C@@H](O)[C@H](N)C[C@H](N)[C@H]3O[C@H]3O[C@H](CO)[C@@H](O)[C@H](O)[C@H]3N)O[C@@H]2CO)[C@H](N)[C@@H](O)[C@@H]1O [Paromomycin, paromomycin] as the compound, how does the CC50 (THP‐1 cells) read?
The CC50 was 39 ± 13.7 µM.

What about the IC50 [2] of the same compound?
The IC50 was 18 ± 1 µM.

What about the IC50 (L. major promastigotes [3]) of the same compound?
The IC50 was 71 ± 3.3 µM.

For N#Cc1ccc(NC(=O)C[Se]C(=O)c2ccco2)cc1C(F)(F)F [Compound 4, Se‐(2‐((4‐cyano‐3‐(trifluoromethyl)phenyl)amino)‐2‐oxoethyl)furan‐2‐carboselenoate], which GI50 (Colon subpanel [4]; read-out: Mean GI50 Colon) is on record?
Its GI50 is 1.91 µM.

And the CC50 (Colon subpanel [4]; read-out: Mean LC50 Colon)?
The CC50 was 27.6 µM.

And the “average growth cell value, NSCL” value [5]?
The value was -37.92%.

What about the “average growth cell value, Leukemia” value (Leukemia subpanel [6]) of the same compound?
Its value is 5.71%.

And the “behaviour in OVCAR‐5” value (OVCAR‐5)?
Its value is “cytotoxic activity”.

What about the “average growth cell value, Breast” value (Breast subpanel [7]) of the same compound?
The value was -25.05%.

And the GI50 (Renal subpanel [8])?
Its GI50 is 1.92 µM.

And the “cytotoxicity against OVCAR‐5” value [9]?
Its value is “remarkable cytotoxicity”.

What about the IC50 (L. major promastigotes [10]) of the same compound?
Its IC50 is 26.5 ± 3.69 µM.

And the “average growth cell value, Ovarian” value (Ovarian subpanel [11])?
Its value is -28.29%.

And the “average growth cell value, CNS” value (CNS subpanel [12])?
The value was -60.59%.

What about the GI50 [13] of the same compound?
The GI50 was 1.56 µM.

And the Ki (hCA IX)?
The Ki was 19 µM.

And the IC50 [14]?
The IC50 was 28.6 ± 2.4 µM.

And the GI50 (Ovarian subpanel [15])?
The GI50 was 1.94 µM.

What about the Ki (hCA XII) of the same compound?
The Ki was 77.1 µM.

And the GI50 (Leukemia subpanel [16]; read-out: Mean GI50 Leukemia)?
Its GI50 is 1.87 µM.

And the CC50 (Leukemia subpanel [16]; read-out: Mean LC50 Leukemia)?
Its CC50 is over 100 µM.

What about the “average growth cell value, Melanoma” value (Melanoma subpanel [17]) of the same compound?
The value was -56.62%.

What about the Ki (hCA II) of the same compound?
Its Ki is 93.8 µM.

And the “average growth cell value, Prostate” value (Prostate subpanel [18])?
The value was -28.10%.

And the GI50 (Melanoma subpanel [19])?
The GI50 was 1.44 µM.

And the Ki (hCA I)?
Its Ki is over 100 µM.

And the GI50 (Prostate subpanel [20]; read-out: Mean GI50 Prostate)?
Its GI50 is 1.65 µM.

And the CC50 (Prostate subpanel [20]; read-out: Mean LC50 Prostate)?
Its CC50 is 53.2 µM.

What about the “average growth cell value, Renal” value (Renal subpanel [21]) of the same compound?
Its value is -40.11%.

And the GI50 (Breast subpanel [22])?
Its GI50 is 1.72 µM.

What about the “average growth cell value, Colon” value (Colon subpanel [23]) of the same compound?
Its value is -19.82%.

What about the GI50 (CNS subpanel [24]) of the same compound?
The GI50 was 1.8 µM.

With COc1cc2ncnc(Nc3ccc(F)c(Cl)c3)c2cc1OCCCN1CCOCC1 [gefitinib] as the compound, how does the GI50 [1] read?
The GI50 was 3.2 µM.

For CCCCCCCCCCCCCCCCOP(=O)([O-])OCC[N+](C)(C)C [Miltefosine, miltefosine], which CC50 (THP‐1 cells) is on record?
The CC50 was 13.3 ± 2.8 µM.

And the IC50 [2]?
The IC50 was 31.9 ± 2.3 µM.

And the IC50 (L. major promastigotes [3])?
Its IC50 is 66.6 ± 11.6 µM.
